Test results reported in patent US5037822A, “1-arylsulphonyl-2-pyrrolidinethione or 1-arylsulphonyl-2-piperidinethione derivatives, process for the preparation thereof their application as medicinal products and compositions containing them” (Roussel-Uclaf, priority 1989, dated 1991).
Like-named read-outs stand apart in the source and are kept apart here.

What was measured:
[1] = test system: isolated guinea pig ileum; assay: Agonist action on isolated guinea pig ileum; format: cell-based; settings: Cavia porcellus, read-out: Agonist action pD2 (converted)
Description: (§1) The interaction of the compounds with different receptors was assessed on isolated guinea pig ileum according to the following method.
(§2) Guinea pig ileum segments measuring 2.5-3 cm were washed and immediately suspended in a bath containing 10 ml of Tyrode's solution at 37° C. aerated with a mixture of oxygen (95%) and carbon dioxide (5%). After a stabilization period of at least 30 minutes, the contractions were recorded, maintaining the preparation under constant tension of 1 g using a gauge connected to a polygraph. The agonist action was assessed by leaving the compound in contact with the isolated tissue for a period necessary for expressing the maximal contraction; the preparation was then washed with Tyrode's solution. The next dose was added to the bath only after the preparation had returned to its base line. As a reference product, arecoline was employed. The antagonist action was assessed on contractions induced by acetylchloine (1×10^-6 M), histamine (1×10^-5 M) and barium chloride (2×10^-4 M). Atropine, diphenhydramine and papaverine were employed as reference products. The contact time before adding the agonist was one minute.
(§3) For each compound, the dose-response curves are obtained with 4 to 6 different concentrations and 3 to 5 independent tests. The agonist activity is expressed by pD2 (negative logarithm of the dose which produces 50% of the maximum effect). The antagonist activity is expressed by IC50 (concentration inhibiting 50% of the maximal response).

[2] = test system: cholinomimetic effects induced by carbachol; assay: In vivo anticholinergic action: inhibition of carbachol-induced cholinomimetic effects in mice; design: species or system CD1 male mice; settings: for ED50 / ED (1 C): Mus musculus, ip; for ED (1 C): read-out: Body temperature: dose increasing by 1° C. the hypothermic effect induced by the cholinergic agent
Description: The anticholinergic activity of the compounds was determined by assessing the capacity to inhibit the cholinomimetic effects induced by carbachol. Atropine sulphate was employed as a reference product.
CD1 male mice weighing 25 to 30 g were used. They were distributed in groups of 6 animals and treated intraperitoneally with scalar doses of the products or 0.25% Methocel for the controls. 12 animals were used for each dose. 30 minutes after administration of the compounds, the mice were injected subcutaneously with 1 mg/kg of carbachol dissolved in physiological saline.
Each animal was examined 30 minutes after the injection of carbachol to assess the presence of diarrhoea, salivation and eye watering; in addition, the body temperature was measured by means of a thermocouple inserted 1.5 cm into the rectum.
For each compound, we have determined and recorded in the following table the dose capable of inhibiting the appearance of the carbachol-induced cholinometric symptoms in 50% of the animals, and of increasing by 1° C. the hypothermic effect induced by the cholinergic agent.

[3] = test system: isolated guinea pig ileum, contractions induced by acetylcholine; assay: Antagonist action on acetylcholine-induced contractions of isolated guinea pig ileum; format: cell-based; settings: Cavia porcellus, read-out: Antagonist to ACh, IC50
Description: as §1, §2, §3

[4] = test system: isolated guinea pig ileum, contractions induced by barium chloride; assay: Antagonist action on barium chloride-induced contractions of isolated guinea pig ileum; format: cell-based; settings: Cavia porcellus, read-out: Antagonist to BaCl2, IC50
Description: as §1, §2, §3

[5] = test system: isolated guinea pig ileum, contractions induced by histamine; assay: Antagonist action on histamine-induced contractions of isolated guinea pig ileum; format: cell-based; settings: Cavia porcellus; histamine 1×10^-5 M, contact time one minute, 37° C.; read-out: Antagonist to Histam., IC50
Description: as §1
as §2, with “The antagonist action was assessed on contractions induced by acetylchloine (1×10^-6 M), histamine (1×10^-5 M) and barium chloride (2×10^-4 M). Atropine, diphenhydramine and papaverine were employed as reference products.” left out
as §3

Muscarinic receptor 1 = biological target: T1, Muscarinic receptor 1 (Rattus norvegicus, UniProt P08482); assay: Binding to muscarinic receptor 1 ([3H]pirenzepine); settings: 0.25 nM [3H]pirenzepine, rat cortex homogenate, pH 7.4, 60 min, 25° C.; read-out: Affinity for M1 muscarinic receptor, IC50
T1 construct: cortices removed from the brains of male rats; tissue Iffa Credo (animals); host or cells: cerebral cortex of male rats weighing 150 to 200 g, homogenate
T1 sequence (P08482 1-460): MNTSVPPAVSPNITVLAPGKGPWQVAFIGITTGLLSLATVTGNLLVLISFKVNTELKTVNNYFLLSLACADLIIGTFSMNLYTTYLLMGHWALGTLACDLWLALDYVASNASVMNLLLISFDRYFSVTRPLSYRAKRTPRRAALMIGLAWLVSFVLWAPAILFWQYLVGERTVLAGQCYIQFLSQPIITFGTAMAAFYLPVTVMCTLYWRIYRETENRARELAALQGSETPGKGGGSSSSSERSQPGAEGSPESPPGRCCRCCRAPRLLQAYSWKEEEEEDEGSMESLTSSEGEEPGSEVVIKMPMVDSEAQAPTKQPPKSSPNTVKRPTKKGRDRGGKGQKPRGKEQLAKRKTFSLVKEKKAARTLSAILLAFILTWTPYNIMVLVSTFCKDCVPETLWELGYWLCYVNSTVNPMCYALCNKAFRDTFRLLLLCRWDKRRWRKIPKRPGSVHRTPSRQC
Description: Preparation of this is carried out from cortices removed from the brains of male rats weighing 150 to 200 g (Iffa Credo), ground in a Polytron in a 10 mM Na/K buffer pH 7.4. After incubation (0.5 ml aliquots of homogenate) for 60 minutes at 25° C. in the presence of 0.25 nM [^3 H]pirenzepine, either alone, or with the test product, or with an excess of 10^-5 M pirenzepine (to determine the non-specifically bound radioactivity), the incubates are cooled and filtered.
The filtration is performed on Whatman GF/C filters prewashed in a 0.05% strength solution of polyethylenimine. The filters are rinsed with 3×5 ml of 10 mM Na/K phosphate buffer pH 7.4 and the measurements are then performed by liquid scintillation.
(§4) The results are expressed as an IC50 (concentration needed to inhibit by 50% the specifically bound radioactivity).

Muscarinic receptor 2 = assay: Binding to muscarinic receptor 2 ([3H]quinuclidinyl benzylate); settings: 0.3 nM [3H]quinuclidinyl benzylate, rat brain, pH 7.5, 60 min, 25° C.; read-out: Affinity for M2 muscarinic receptor, IC50
Description: The preparation is performed from brains of male rats weighing 150 to 200 g (Iffa Credo).
The brains are ground (Teflon-glass) in 0.32M sucrose solution. The homogenate is centrifuged for 10 minutes at 1,000 g (0°-4° C.).
The supernatant obtained is collected and centrifuged at 30,000 g for 15 minutes (0°-4° C.).
The pellet is resuspended in 50 mM Tris buffer pH 7.5 and the new homogenate is centrifuged again at 30,000 g for 15 minutes (0°-4° C.).
After removal of the supernatant, the pellets may be used immediately or stored for up to 1 month at -30° C.
For an experiment, the pellets are first thawed, if necessary, at room temperature and resuspended using a Dounce in 50 mM Tris buffer pH 7.5. 2 ml aliquots are incubated for 60 minutes at 25° C. in the presence of 0.3 nM [^3 H]quinuclidinyl benzylate, either alone, or with the test product, or with 10^-5 M benzatropine to determine the non-specifically bound radioactivity.
At the end of the incubation period, the incubate tubes are cooled to 4° C. and filtered rapidly on Whatman GF/C filters. The filters are rinsed with 3×5 ml of 50 mM Tris buffer pH 7.5 and the measurements are then performed by liquid scintillation (Henry I. Yamamura, Solomon H. Snyder, Proc. Nat. Acad. Sc. (1974) 71, No. 5, 1725-1729).
as §4

[6] = barium chloride 2×10^-4 M, contact time one minute, 37° C.
[7] = 30 min before carbachol 1 mg/kg s.c., mice
[8] = 30 min before carbachol 1 mg/kg s.c., mice, read-out: Dose inhibiting carbachol-induced diarrhoea in 50% of the animals
[9] = 30 min before carbachol 1 mg/kg s.c., mice, read-out: Dose inhibiting carbachol-induced eye watering in 50% of the animals
[10] = 30 min before carbachol 1 mg/kg s.c., mice, read-out: Dose inhibiting carbachol-induced salivation in 50% of the animals
[11] = negative logarithm of the dose producing 50% of the maximum effect, 37° C.
[12] = acetylcholine 1×10^-6 M, contact time one minute, 37° C.

Row | IC50 [4, 6] [µM] | EC50 [1, 11] [µM] | IC50 [5] [µM] | IC50 (Muscarinic receptor 1) [nM] | IC50 [3, 12] [nM] | IC50 (Muscarinic receptor 2) [nM] | Compound | EC50 [1] [µM] | ED50 ([2]; read-out: Dose inhibiting carbachol-induced diarrhoea in 50% of the animals) [mg/kg] | ED50 ([2]; read-out: Dose inhibiting carbachol-induced eye watering in 50% of the animals) [mg/kg] | ED50 ([2]; read-out: Dose inhibiting carbachol-induced salivation in 50% of the animals) [mg/kg] | IC50 [3] [nM] | cholinomimetic symptoms induced by carbachol ([2]; 1 mg/kg s.c., control mice) | decrease in rectal temperature induced by carbachol ([2]; 1 mg/kg s.c., control mice) | ED (1 C) [2, 7] [mg/kg] | ED50 [2, 8] [mg/kg] | ED50 [2, 9] [mg/kg] | ED50 [2, 10] [mg/kg] | IC50 [4] [µM]
1 | > 10 | > 10 | > 10 | 43 | 570 | 2200 | CCN(CC)c1ccc(S(=O)(=O)N2CCCC2=S)cc1 [Example 1, 1-[4-(Diethylamino)benzenesulphonyl]-2-pyrrolidinethione] | – | – | – | – | – | – | – | > 50 | 5 | > 50 | > 50 | –
2 | > 10 | > 10 | > 10 | 73 | 340 | 1900 | CCN(CC)c1ccc(S(=O)(=O)N2CCCCC2=S)cc1 [Example 2, 1-[4-(diethylamino)benzenesulphonyl]-2-piperidinethione] | – | – | – | – | – | – | – | > 50 | 8 | > 50 | > 50 | –
3 | > 10 | > 10 | – | 10 | 280 | 120 | O=S(=O)(c1ccc(N2CCCCCC2)cc1)N1CCCC1=S [Example 5, 1-[4-(1-Hexahydroazepinyl)benzenesulphonyl]-2-pyrrolidinethione] | – | – | – | – | – | – | – | 12 | 0.6 | > 50 | 15 | –
4 | > 10 | > 10 | – | 12 | 190 | 230 | O=S(=O)(c1ccc(N2CCCCCC2)cc1)N1CCCCC1=S [Example 6, 1-[4-(1-Hexahydroazepinyl)benzenesulphonyl]-2-piperidinethione] | – | – | – | – | – | – | – | > 50 | 2 | > 50 | 40 | –

More lines, now with the values behind:

Row | Compound | IC50 [4, 6] [µM] | EC50 [1, 11] [µM] | IC50 [5] [µM] | IC50 (Muscarinic receptor 1) [nM] | IC50 [3, 12] [nM] | IC50 (Muscarinic receptor 2) [nM] | EC50 [1] [µM] | ED50 ([2]; read-out: Dose inhibiting carbachol-induced diarrhoea in 50% of the animals) [mg/kg] | ED50 ([2]; read-out: Dose inhibiting carbachol-induced eye watering in 50% of the animals) [mg/kg] | ED50 ([2]; read-out: Dose inhibiting carbachol-induced salivation in 50% of the animals) [mg/kg] | IC50 [3] [nM] | cholinomimetic symptoms induced by carbachol ([2]; 1 mg/kg s.c., control mice) | decrease in rectal temperature induced by carbachol ([2]; 1 mg/kg s.c., control mice) | ED (1 C) [2, 7] [mg/kg] | ED50 [2, 8] [mg/kg] | ED50 [2, 9] [mg/kg] | ED50 [2, 10] [mg/kg] | IC50 [4] [µM]
5 | COC(=O)C1=CCCN(C)C1 [Arecoline, arecoline, reference compound] | – | – | – | – | – | – | 0.209 | – | – | – | – | – | – | – | – | – | – | –
6 | CN1[C@@H]2CC[C@H]1C[C@@H](OC(=O)C(CO)c1ccccc1)C2 (stereo partly shown) [Atropine, reference compound] | – | – | – | – | – | – | – | 0.04 | 0.05 | 0.06 | 9.5 | – | – | – | – | – | – | –
7 | C[N+](C)(C)CCOC(N)=O [Carbachol, carbachol, reference compound] | – | – | – | – | – | – | – | – | – | – | – | induced diarrhoea, salivation and eye watering in all the control mice | approximately 2.5 °C | – | – | – | – | –
8 | O=S(=O)(c1ccc(N2CCCCC2)cc1)N1CCCC1=S [Example 3, 1-[4-(1-piperidyl)benzenesulphonyl]-2-pyrrolidinethione] | > 10 | > 10 | – | 25 | 2600 | 650 | – | – | – | – | – | – | – | > 50 | 3 | > 50 | > 50 | –
9 | O=S(=O)(c1ccc(N2CCCCC2)cc1)N1CCCCC1=S [Example 4, 1-[4-(1-Piperidyl)benzenesulphonyl]-2-piperidinethione] | > 10 | > 10 | – | 30 | 3600 | 580 | – | – | – | – | – | – | – | > 50 | 7 | > 50 | > 50 | –
10 | COc1ccc(Cc2nccc3cc(OC)c(OC)cc23)cc1OC [Papaverine, papaverine, reference compound] | – | – | – | – | – | – | – | – | – | – | – | – | – | – | – | – | – | 45
